biological target: T1, rat NaPi-2b (Rattus norvegicus, UniProt Q9JJ09); experiment: Sodium-dependent phosphate uptake of Xenopus oocytes which expressed NaPi-2b (32P); type: cell-based; conditions: Xenopus oocytes expressing rat NaPi-2b, 32P radioactive phosphorus; read-out: IC50 (phosphate uptake inhibitory activity)
T1 construct: expressed in transfected cells; host or cells: Xenopus oocytes injected with cRNA
T1 sequence (Q9JJ09 1-695): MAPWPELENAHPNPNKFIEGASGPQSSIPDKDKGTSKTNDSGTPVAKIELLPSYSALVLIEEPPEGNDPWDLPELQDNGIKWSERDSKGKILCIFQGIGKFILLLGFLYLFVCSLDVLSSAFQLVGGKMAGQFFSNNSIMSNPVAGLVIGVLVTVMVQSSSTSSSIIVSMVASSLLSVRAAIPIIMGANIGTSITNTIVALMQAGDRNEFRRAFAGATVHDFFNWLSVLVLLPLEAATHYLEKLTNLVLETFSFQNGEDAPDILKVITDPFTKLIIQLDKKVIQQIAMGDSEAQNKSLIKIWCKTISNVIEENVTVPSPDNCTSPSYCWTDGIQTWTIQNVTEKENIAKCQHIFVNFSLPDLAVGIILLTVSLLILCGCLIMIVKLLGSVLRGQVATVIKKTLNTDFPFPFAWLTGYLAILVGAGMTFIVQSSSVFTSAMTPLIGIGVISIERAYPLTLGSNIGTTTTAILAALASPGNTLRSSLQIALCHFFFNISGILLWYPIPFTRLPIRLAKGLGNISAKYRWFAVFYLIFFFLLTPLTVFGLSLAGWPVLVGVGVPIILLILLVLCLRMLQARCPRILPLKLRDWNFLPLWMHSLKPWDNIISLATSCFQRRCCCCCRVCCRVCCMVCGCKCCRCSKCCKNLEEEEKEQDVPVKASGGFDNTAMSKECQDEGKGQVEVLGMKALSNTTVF
Outline: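 Rat small-intestine NaPi-2b cRNA injected into Xenopus oocytes, expressed for 2 days. Sodium-dependent phosphate uptake measured with 32P; % inhibition at 300 and 100 μM taken from the same inhibition curve.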

Point of comparison: `CCN(CCO)Cc1cccc(C(=O)Nc2ccc(Cl)cc2C(=O)N/N=C/c2cccc(OC)c2)c1` [Compound 428, N-[4-Chloro-2-(3-methoxy-benzylidene-hydrazinocarbonyl)-phenyl]-3-{[ethyl-(2-hydroxy-ethyl)-amino]-methyl}-benzamide], IC50 1.82 µM. Against it:
- CCN(CCO)Cc1cccc(C(=O)Nc2ccc(Cl)cc2C(=O)N/N=C/c2ccc(C)c(C)c2)c1 [Compound 426, N-[4-Chloro-2-(3,4-dimethyl-benzylidene-hydrazinocarbonyl)-phenyl]-3-{[ethyl-(2-hydroxy-ethyl)-amino]-methyl}-benzamide] — within 1.5-fold, 1.89 µM
- CCN(CCO)Cc1cccc(C(=O)Nc2ccc(Cl)cc2C(=O)N/N=C/c2ccc(Cl)c(C(F)(F)F)c2)c1 [Compound 427, N-[4-Chloro-2-(4-chloro-3-trifluoromethyl-benzylidene-hydrazinocarbonyl)-phenyl]-3-{[ethyl-(2-hydroxy-ethyl)-amino]-methyl}-benzamide] — not separable, < 3 µM
- CCN(CCO)Cc1cccc(C(=O)Nc2ccc(Cl)cc2C(=O)N/N=C/c2ccc(OC)cc2)c1 [Compound 429, N-[4-Chloro-2-(4-methoxy-benzylidene-hydrazinocarbonyl)-phenyl]-3-{[ethyl-(2-hydroxy-ethyl)-amino]-methyl}-benzamide] — 3.2-fold higher, 5.88 µM
- CCN(CCO)Cc1cccc(C(=O)Nc2ccc(Cl)cc2C(=O)N/N=C/c2cccc(O)c2)c1 [Compound 430, N-[4-Chloro-2-(3-hydroxy-benzylidene-hydrazinocarbonyl)-phenyl]-3-{[ethyl-(2-hydroxy-ethyl)-amino]-methyl}-benzamide] — 2.5-fold higher, 4.53 µM
- CCN(CCO)Cc1cccc(C(=O)Nc2ccc(Cl)cc2C(=O)N/N=C/c2ccc(O)cc2)c1 [Compound 431, N-[4-Chloro-2-(4-hydroxy-benzylidene-hydrazinocarbonyl)-phenyl]-3-{[ethyl-(2-hydroxy-ethyl)-amino]-methyl}-benzamide] — 3.1-fold higher, 5.57 µM
- CCN(CCO)Cc1ccc(C(=O)Nc2ccc(Cl)cc2C(=O)N/N=C/c2cccc(F)c2)cc1 [Compound 432, N-[4-Chloro-2-(3-fluoro-benzylidene-hydrazinocarbonyl)-phenyl]-4-{[ethyl-(2-hydroxy-ethyl)-amino]-methyl}-benzamide] — 12-fold higher, 22.2 µM
- CCN(CCO)Cc1ccc(C(=O)Nc2ccc(Cl)cc2C(=O)N/N=C/c2ccc(F)cc2)cc1 [Compound 433, N-[4-Chloro-2-(4-fluoro-benzylidene-hydrazinocarbonyl)-phenyl]-4-{[ethyl-(2-hydroxy-ethyl)-amino]-methyl}-benzamide] — 7.9-fold higher, 14.3 µM
- CCN(CCO)Cc1ccc(C(=O)Nc2ccc(Cl)cc2C(=O)N/N=C/c2cccc(C)c2)cc1 [Compound 434, N-[4-Chloro-2-(3-methyl-benzylidene-hydrazinocarbonyl)-phenyl]-4-{[ethyl-(2-hydroxy-ethyl)-amino]-methyl}-benzamide] — 4.3-fold higher, 7.78 µM
- CCN(CCO)Cc1ccc(C(=O)Nc2ccc(Cl)cc2C(=O)N/N=C/c2ccc(C)cc2)cc1 [Compound 435, N-[4-Chloro-2-(4-methyl-benzylidene-hydrazinocarbonyl)-phenyl]-4-{[ethyl-(2-hydroxy-ethyl)-amino]-methyl}-benzamide] — 4.2-fold higher, 7.65 µM
- CCN(CCO)Cc1ccc(C(=O)Nc2ccc(Cl)cc2C(=O)N/N=C/c2ccc(C)c(C)c2)cc1 [Compound 436, N-[4-Chloro-2-(3,4-dimethyl-benzylidene-hydrazinocarbonyl)-phenyl]-4-{[ethyl-(2-hydroxy-ethyl)-amino]-methyl}-benzamide] — 4.6-fold higher, 8.36 µM
- CCN(CCO)Cc1ccc(C(=O)Nc2ccc(Cl)cc2C(=O)N/N=C/c2ccc(Cl)c(C(F)(F)F)c2)cc1 [Compound 437, N-[4-Chloro-2-(4-chloro-3-trifluoromethyl-benzylidene-hydrazinocarbonyl)-phenyl]-4-{[ethyl-(2-hydroxy-ethyl)-amino]-methyl}-benzamide] — not separable, < 3 µM
- CCN(CCO)Cc1ccc(C(=O)Nc2ccc(Cl)cc2C(=O)N/N=C/c2cccc(OC)c2)cc1 [Compound 438, N-[4-Chloro-2-(3-methoxy-benzylidene-hydrazinocarbonyl)-phenyl]-4-{[ethyl-(2-hydroxy-ethyl)-amino]-methyl}-benzamide] — 14-fold higher, 26.3 µM
- CCN(CCO)Cc1ccc(C(=O)Nc2ccc(Cl)cc2C(=O)N/N=C/c2ccc(OC)cc2)cc1 [Compound 439, N-[4-Chloro-2-(4-methoxy-benzylidene-hydrazinocarbonyl)-phenyl]-4-{[ethyl-(2-hydroxy-ethyl)-amino]-methyl}-benzamide] — 16-fold higher, 28.7 µM
- CCN(CCO)Cc1ccc(C(=O)Nc2ccc(Cl)cc2C(=O)N/N=C/c2cccc(O)c2)cc1 [Compound 440, N-[4-Chloro-2-(3-hydroxy-benzylidene-hydrazinocarbonyl)-phenyl]-4-{[ethyl-(2-hydroxy-ethyl)-amino]-methyl}-benzamide] — 18-fold higher, 32.4 µM
- CCN(CCO)Cc1ccc(C(=O)Nc2ccc(Cl)cc2C(=O)N/N=C/c2ccc(O)cc2)cc1 [Compound 441, N-[4-Chloro-2-(4-hydroxy-benzylidene-hydrazinocarbonyl)-phenyl]-4-{[ethyl-(2-hydroxy-ethyl)-amino]-methyl}-benzamide] — 22-fold higher, 40.1 µM
- CN(C)CCn1nnnc1SCc1cccc(C(=O)Nc2ccc(Cl)cc2C(=O)N/N=C/c2cccc(F)c2)c1 [Compound 462, N-[4-Chloro-2-(3-fluoro-benzylidene-hydrazinocarbonyl)-phenyl]-3-[1-(2-dimethylamino-ethyl)-1H-tetrazol-5-ylsulfanylmethyl]-benzamide] — not separable, < 3 µM
- CN(C)CCn1nnnc1SCc1cccc(C(=O)Nc2ccc(Cl)cc2C(=O)N/N=C/c2ccc(F)cc2)c1 [Compound 463, N-[4-Chloro-2-(4-fluoro-benzylidene-hydrazinocarbonyl)-phenyl]-3-[1-(2-dimethylamino-ethyl)-1H-tetrazol-5-ylsulfanylmethyl]-benzamide] — 2.4-fold higher, 4.44 µM
- Cc1cccc(/C=N/NC(=O)c2cc(Cl)ccc2NC(=O)c2cccc(CSc3nnnn3CCN(C)C)c2)c1 [Compound 464, N-[4-Chloro-2-(3-methyl-benzylidene-hydrazinocarbonyl)-phenyl]-3-[1-(2-dimethylamino-ethyl)-1H-tetrazol-5-ylsulfanylmethyl]-benzamide] — 2.7-fold higher, 5 µM
- Cc1ccc(/C=N/NC(=O)c2cc(Cl)ccc2NC(=O)c2cccc(CSc3nnnn3CCN(C)C)c2)cc1 [Compound 465, N-[4-Chloro-2-(4-methyl-benzylidene-hydrazinocarbonyl)-phenyl]-3-[1-(2-dimethylamino-ethyl)-1H-tetrazol-5-ylsulfanylmethyl]-benzamide] — 4.1-fold higher, 7.43 µM
- Cc1ccc(/C=N/NC(=O)c2cc(Cl)ccc2NC(=O)c2cccc(CSc3nnnn3CCN(C)C)c2)cc1C [Compound 466, N-[4-Chloro-2-(3,4-dimethyl-benzylidene-hydrazinocarbonyl)-phenyl]-3-[1-(2-dimethylamino-ethyl)-1H-tetrazol-5-ylsulfanylmethyl]-benzamide] — not separable, < 3 µM
- CN(C)CCn1nnnc1SCc1cccc(C(=O)Nc2ccc(Cl)cc2C(=O)N/N=C/c2ccc(Cl)c(C(F)(F)F)c2)c1 [Compound 467, N-[4-Chloro-2-(4-chloro-3-trifluoromethyl-benzylidene-hydrazinocarbonyl)-phenyl]-3-[1-(2-dimethylamino-ethyl)-1H-tetrazol-5-ylsulfanylmethyl]-benzamide] — 4.4-fold higher, 7.94 µM
- COc1cccc(/C=N/NC(=O)c2cc(Cl)ccc2NC(=O)c2cccc(CSc3nnnn3CCN(C)C)c2)c1 [Compound 468, N-[4-Chloro-2-(3-methoxy-benzylidene-hydrazinocarbonyl)-phenyl]-3-[1-(2-dimethylamino-ethyl)-1H-tetrazol-5-ylsulfanylmethyl]-benzamide] — 12-fold higher, 22.4 µM
- COc1ccc(/C=N/NC(=O)c2cc(Cl)ccc2NC(=O)c2cccc(CSc3nnnn3CCN(C)C)c2)cc1 [Compound 469, N-[4-Chloro-2-(4-methoxy-benzylidene-hydrazinocarbonyl)-phenyl]-3-[1-(2-dimethylamino-ethyl)-1H-tetrazol-5-ylsulfanylmethyl]-benzamide] — 18-fold higher, 33.2 µM
- CN(C)CCn1nnnc1SCc1cccc(C(=O)Nc2ccc(Cl)cc2C(=O)N/N=C/c2cccc(O)c2)c1 [Compound 470, N-[4-Chloro-2-(3-hydroxy-benzylidene-hydrazinocarbonyl)-phenyl]-3-[1-(2-dimethylamino-ethyl)-1H-tetrazol-5-ylsulfanylmethyl]-benzamide] — 13-fold higher, 23.5 µM

same assay, conditions: phosphate uptake, oocytes expressing rat NaPi-2b; 300 μM, determined from inhibition curve

With `CN(C)CCn1nnnc1SCc1cccc(C(=O)Nc2ccc(Cl)cc2C(=O)N/N=C/c2ccc(O)cc2)c1` [Compound 471, N-[4-Chloro-2-(4-hydroxy-benzylidene-hydrazinocarbonyl)-phenyl]-3-[1-(2-dimethylamino-ethyl)-1H-tetrazol-5-ylsulfanylmethyl]-benzamide] the inhibition at 300 µM was 51%.

— patent US8134015B2, “Compound inhibiting in vivo phosphorous transport and medicine containing the same” (Kyowa Hakko Kirin Co., Ltd., priority 2003, dated 2012)
